Experimental data: patent publication US7550558B2, “Antimicrobial peptides and methods for identifying and using such peptides” (priority 2001, dated 2009)
No end group written: not given here.

Experiments:
[1] = literature; cited from earlier work

| Sequence | concentrations with no antibacterial effect (MIC) (Micrococcus luteus) [µg/mL] | minimum inhibitory concentration (MIC) (Aspergillus nidulans) [µg/mL] | concentrations with no antibacterial effect (MIC) (Staphylococcus aureus) [µg/mL] | concentrations with no antibacterial effect (MIC) (Escherichia coli) [µg/mL] | minimum inhibitory concentration (MIC) (Candida albicans) [µg/mL] | cytotoxic property [1] | hemolytic property [1] |
| --- | --- | --- | --- | --- | --- | --- | --- |
| HPLKQYWWRPSI [PW2, HPLKQYWWRPSI] | > 200 | 25 to 50 | > 200 | > 200 | 12.5 to 25 |  |  |
| ILPWLWPWWPWRR [indolicidin] |  |  |  |  |  | cytotoxic | hemolytic |
| VRRFPWWWPFLRR [tritrpticin] |  |  |  |  |  | cytotoxic | hemolytic |
